± gives the uncertainty stated by the source.
Test: xn = mol fraction of the nth substance listed
[1] = 328.15 K, 101.3 kPa, x2 = 0.6364

## CCCC(=O)[O-].OCC[NH2+]c1ccccc1 + O
303.15 K, 100 kPa, x2 = 0.0163
  electrical conductivity: 0.000469 ± 1.9e-05 S/m
303.15 K, 100 kPa, x2 = 0.03811
  electrical conductivity: 0.00047 ± 1.9e-05 S/m
303.15 K, 100 kPa, x2 = 0.05476
  electrical conductivity: 0.000471 ± 1.9e-05 S/m
303.15 K, 100 kPa, x2 = 0.07271
  electrical conductivity: 0.000472 ± 1.9e-05 S/m

## CC[n+]1ccn(C)c1.N#C[S-] + CS(C)=O
293.15 K, 101 kPa, x1 = 0.3333
  viscosity: 3.24 ± 0.33 mPa·s
308.15 K, 101 kPa, x1 = 0.3333
  viscosity: 2.36 ± 0.24 mPa·s
328.15 K, 101 kPa, x1 = 0.3333
  viscosity: 1.57 ± 0.16 mPa·s

## CCCCCCCCCCCCCCCC[N+](C)(C)C.[Br-] + CCO + O
298.2 K, 101.3 kPa, x1 = 1.26e-06, x2 = 0.05064
  electrical conductivity: 0.00062 ± 0.0002 S/m
298.2 K, 101.3 kPa, x1 = 3.09e-06, x2 = 0.05064
  electrical conductivity: 0.00117 ± 0.0002 S/m
298.2 K, 101.3 kPa, x1 = 5.13e-06, x2 = 0.05064
  electrical conductivity: 0.00178 ± 0.0002 S/m
298.2 K, 101.3 kPa, x1 = 7.19e-06, x2 = 0.05064
  electrical conductivity: 0.00236 ± 0.0002 S/m
298.2 K, 101.3 kPa, x1 = 9.2e-06, x2 = 0.05064
  electrical conductivity: 0.00294 ± 0.0002 S/m
298.2 K, 101.3 kPa, x1 = 1.12e-05, x2 = 0.05064
  electrical conductivity: 0.0035 ± 0.0002 S/m
298.2 K, 101.3 kPa, x1 = 1.326e-05, x2 = 0.05064
  electrical conductivity: 0.00406 ± 0.0002 S/m
298.2 K, 101.3 kPa, x1 = 1.526e-05, x2 = 0.05064
  electrical conductivity: 0.00458 ± 0.0002 S/m
298.2 K, 101.3 kPa, x1 = 1.726e-05, x2 = 0.05064
  electrical conductivity: 0.00501 ± 0.0002 S/m
298.2 K, 101.3 kPa, x1 = 1.932e-05, x2 = 0.05064
  electrical conductivity: 0.0055 ± 0.0002 S/m
298.2 K, 101.3 kPa, x1 = 2.135e-05, x2 = 0.05064
  electrical conductivity: 0.00592 ± 0.0002 S/m
298.2 K, 101.3 kPa, x1 = 2.333e-05, x2 = 0.05064
  electrical conductivity: 0.00629 ± 0.0002 S/m
298.2 K, 101.3 kPa, x1 = 2.537e-05, x2 = 0.05064
  electrical conductivity: 0.00663 ± 0.0002 S/m
298.2 K, 101.3 kPa, x1 = 2.735e-05, x2 = 0.05064
  electrical conductivity: 0.00698 ± 0.0002 S/m
298.2 K, 101.3 kPa, x1 = 2.922e-05, x2 = 0.05064
  electrical conductivity: 0.00728 ± 0.0002 S/m
298.2 K, 101.3 kPa, x1 = 3.097e-05, x2 = 0.05064
  electrical conductivity: 0.00754 ± 0.0002 S/m
298.2 K, 101.3 kPa, x1 = 3.328e-05, x2 = 0.05064
  electrical conductivity: 0.00788 ± 0.0002 S/m

## CCOCn1cc[n+](C)c1.O=S(=O)([N-]S(=O)(=O)C(F)(F)F)C(F)(F)F + O
333 K, 101 kPa, x1 = 0.8415
  viscosity: 11.7 ± 0.3 mPa·s

## CCCCCCCCCCCCCCCC[N+](C)(C)C.[Br-] + OC1OC[C@@H](O)[C@H](O)[C@H]1O + O
298.15 K, 100 kPa, x1 = 7.21e-06, x2 = 0
  viscosity: 0.896 ± 0.06 mPa·s
298.15 K, 100 kPa, x1 = 1.442e-05, x2 = 0
  viscosity: 0.898 ± 0.06 mPa·s
298.15 K, 100 kPa, x1 = 2.162e-05, x2 = 0
  viscosity: 0.9 ± 0.06 mPa·s
308.15 K, 100 kPa, x1 = 7.21e-06, x2 = 0
  viscosity: 0.742 ± 0.06 mPa·s
308.15 K, 100 kPa, x1 = 1.442e-05, x2 = 0
  viscosity: 0.744 ± 0.06 mPa·s
308.15 K, 100 kPa, x1 = 2.162e-05, x2 = 0
  viscosity: 0.745 ± 0.06 mPa·s
318.15 K, 100 kPa, x1 = 7.21e-06, x2 = 0
  viscosity: 0.617 ± 0.06 mPa·s
318.15 K, 100 kPa, x1 = 1.442e-05, x2 = 0
  viscosity: 0.617 ± 0.06 mPa·s
318.15 K, 100 kPa, x1 = 2.162e-05, x2 = 0
  viscosity: 0.617 ± 0.06 mPa·s

## C[P+](c1ccccc1)(c1ccccc1)c1ccccc1.[Br-] + OCC(O)CO
298 K, 101.3 kPa, x1 = 0.2
  viscosity: 352 ± 37 mPa·s
298.2 K, 101 kPa, x1 = 0.2
  viscosity: 1894 ± 280 mPa·s
322.36 K, 101 kPa, x2 = 0.75
  viscosity: 272 ± 8.9 mPa·s
327.54 K, 101 kPa, x2 = 0.75
  viscosity: 204 ± 5.7 mPa·s
[1]
  electrical conductivity: 0.09 ± 0.014 S/m
  viscosity: 410 ± 190 mPa·s

## COC(=O)OC + CCCCn1cc[n+](C)c1C.O=S(=O)([N-]S(=O)(=O)C(F)(F)F)C(F)(F)F
288.15 K, 101.3 kPa, x2 = 0
  viscosity: 0.668 ± 0.015 mPa·s
293.15 K, 101.3 kPa, x2 = 0
  viscosity: 0.628 ± 0.014 mPa·s
298.15 K, 101.3 kPa, x2 = 0
  viscosity: 0.588 ± 0.013 mPa·s
303.15 K, 101.3 kPa, x2 = 0
  viscosity: 0.553 ± 0.012 mPa·s
308.15 K, 101.3 kPa, x2 = 0
  viscosity: 0.524 ± 0.011 mPa·s
313.15 K, 101.3 kPa, x2 = 0
  viscosity: 0.498 ± 0.011 mPa·s

## CCCCCCCC[n+]1ccccc1.F[B-](F)(F)F + O
288.15 K, 101.3 kPa, x2 = 0
  viscosity: 447 ± 34 mPa·s
288.15 K, 101.3 kPa, x2 = 0.1
  viscosity: 289 ± 17 mPa·s
288.15 K, 101.3 kPa, x2 = 0.184
  viscosity: 192.6 ± 9 mPa·s
288.15 K, 101.3 kPa, x2 = 0.324
  viscosity: 121.3 ± 3.9 mPa·s
288.15 K, 101.3 kPa, x2 = 0.477
  viscosity: 89 ± 2 mPa·s
288.15 K, 101.3 kPa, x2 = 0.67
  viscosity: 50.65 ± 0.78 mPa·s
288.15 K, 101.3 kPa, x2 = 0.758
  viscosity: 37.8 ± 0.8 mPa·s
293.15 K, 101.3 kPa, x2 = 0.1
  viscosity: 213 ± 11 mPa·s
293.15 K, 101.3 kPa, x2 = 0.184
  viscosity: 145.6 ± 5.5 mPa·s
293.15 K, 101.3 kPa, x2 = 0.324
  viscosity: 94.1 ± 2.2 mPa·s
298.15 K, 101.3 kPa, x2 = 0.67
  viscosity: 32.69 ± 0.7 mPa·s
298.15 K, 101.3 kPa, x2 = 0.758
  viscosity: 23.24 ± 0.65 mPa·s
308.15 K, 101.3 kPa, x2 = 0
  viscosity: 134.8 ± 4.7 mPa·s
308.15 K, 101.3 kPa, x2 = 0.783
  viscosity: 15.11 ± 0.62 mPa·s
313.15 K, 101.3 kPa, x2 = 0.562
  viscosity: 19.43 ± 0.63 mPa·s
313.15 K, 101.3 kPa, x2 = 0.67
  viscosity: 18.67 ± 0.63 mPa·s
318.15 K, 101.3 kPa, x2 = 0
  viscosity: 81.6 ± 1.6 mPa·s
318.15 K, 101.3 kPa, x2 = 0.324
  viscosity: 32.19 ± 0.68 mPa·s
323.15 K, 101.3 kPa, x2 = 0.324
  viscosity: 27.26 ± 0.66 mPa·s
328.15 K, 101.3 kPa, x2 = 0.1
  viscosity: 38.44 ± 0.72 mPa·s
328.15 K, 101.3 kPa, x2 = 0.184
  viscosity: 30.98 ± 0.67 mPa·s
328.15 K, 101.3 kPa, x2 = 0.758
  viscosity: 8.61 ± 0.6 mPa·s
333.15 K, 101.3 kPa, x2 = 0
  viscosity: 45.28 ± 0.75 mPa·s
333.15 K, 101.3 kPa, x2 = 0.1
  viscosity: 32.1 ± 0.68 mPa·s
333.15 K, 101.3 kPa, x2 = 0.184
  viscosity: 26.18 ± 0.65 mPa·s
333.15 K, 101.3 kPa, x2 = 0.758
  viscosity: 7.63 ± 0.6 mPa·s
338.15 K, 101.3 kPa, x2 = 0.67
  viscosity: 9.23 ± 0.61 mPa·s
343.15 K, 101.3 kPa, x2 = 0.324
  viscosity: 15.05 ± 0.62 mPa·s
343.15 K, 101.3 kPa, x2 = 0.67
  viscosity: 7.99 ± 0.6 mPa·s
348.15 K, 101.3 kPa, x2 = 0
  viscosity: 27.77 ± 0.65 mPa·s
348.15 K, 101.3 kPa, x2 = 0.477
  viscosity: 10.05 ± 0.61 mPa·s

## CCCC[P+](c1ccccc1)(c1ccccc1)c1ccccc1.[Br-] + OCCO
303.15 K, 100 kPa, x2 = 0.9756
  viscosity: 21.6 ± 0.9 mPa·s
313.15 K, 100 kPa, x2 = 0.9756
  viscosity: 18.5 ± 0.8 mPa·s
323.15 K, 100 kPa, x2 = 0.9756
  viscosity: 15.5 ± 0.6 mPa·s
333.15 K, 100 kPa, x2 = 0.9756
  viscosity: 14 ± 0.6 mPa·s
343.15 K, 100 kPa, x2 = 0.9756
  viscosity: 12 ± 0.5 mPa·s
353.15 K, 100 kPa, x2 = 0.9756
  viscosity: 10.5 ± 0.4 mPa·s

## C[N+](C)(C)CCO.O=S(=O)([N-]S(=O)(=O)C(F)(F)F)C(F)(F)F + OCCCCCO
318.15 K, 101 kPa, x2 = 0.2149
  viscosity: 37.3 ± 2.1 mPa·s
323.15 K, 101 kPa, x2 = 0
  viscosity: 39.3 ± 2.2 mPa·s
323.15 K, 101 kPa, x2 = 0.2149
  viscosity: 31.2 ± 1.8 mPa·s
328.15 K, 101 kPa, x2 = 0.2149
  viscosity: 26.3 ± 1.5 mPa·s
333.15 K, 101 kPa, x2 = 0.2149
  viscosity: 22.5 ± 1.3 mPa·s
338.15 K, 101 kPa, x2 = 0.4145
  viscosity: 16.11 ± 0.95 mPa·s
343.15 K, 101 kPa, x2 = 0.6847
  viscosity: 12.37 ± 0.74 mPa·s

## CCCCCCCCCCCC[N+](CC)(CC)CC.O=S(=O)([N-]S(=O)(=O)C(F)(F)F)C(F)(F)F + O
293.25 K, 101 kPa, x2 = 0.1247
  viscosity: 157.4 ± 3.9 mPa·s
298.05 K, 101 kPa, x2 = 0.1247
  viscosity: 130.7 ± 3.1 mPa·s
